From patent US9611268B2, “Modulators of toll-like receptor 7” (Gilead Sciences, Inc., priority 2007, dated 2017)

System: human Peripheral Blood Mononuclear Cell (PMBC)
Assay: PBMC Assay, cytokine stimulation (IFNα)
Type: cell-based
Settings: concentration at which the compound stimulated maximum IFN α production, 24 hours, read-out: IFN ECmax values
Description: Assays were conducted to determine cytokine stimulation at 24 hours from human Peripheral Blood Mononuclear Cell (PMBC) using the compounds of the present invention. The assays were run in duplicate, with 8-point, half-log dilution curves. The compounds of the present invention were diluted from […] DMSO solution. Cell supernatants are assayed directly for IFNα and 1:10 dilution for TNFα. The assays were performed in a similar fashion as described in Bioorg. Med. Chem. Lett. 16, 4559, (2006). Specifically, cryo-preserved PBMCs were thawed and seeded 96 well plates with 750,000 cells/well in 190 μL/well cell media. The PBMCs were then incubated for 1 hour at 37° C. at 5% CO2. Then, the compounds of the present invention were added in 10 μL cell media at 8 point, half-log dilution titration. The plates were incubated at 37° C. and 5% CO2 for 24 hours and then spinned at 1200 rpm for 10 min, which was followed by collecting supernatant and storing the same at −80° C. Cytokine secretion was assayed with Luminex and Upstate multi-plex kits, using a Luminex analysis instrument. IFN ECmax value for a compound was the concentration at which the compound stimulated maximum IFN α production as determined using the assay method above.

Compound	EC (max) [µM]
COCCOc1nc(N)c2nc(O)n(Cc3cccc(CN4CCCC4)c3)c2n1 [Example A, 6-Amino-2-(2-methoxy-ethoxy)-9-(3-pyrrolidin-1-ylmethyl-benzyl)-9H-purin-8-ol]	< 0.005
COCCOc1nc(N)c2nc(O)n(Cc3cc(CN4CCCC4)cc(C(F)(F)F)c3)c2n1 [Example AQ]	< 0.005
COCCOc1nc(N)c2nc(O)n(Cc3cc(CN4CCCCC4)cc(C(F)(F)F)c3)c2n1 [Example AS]	< 0.005
Nc1nc(OCCC2CC2)nc2c1nc(O)n2Cc1cccc(CN2CCCC2)c1 [Example AU]	< 0.005
Nc1nc(OCC2CCC2)nc2c1nc(O)n2Cc1cccc(CN2CCCC2)c1 [Example AV]	< 0.005
Nc1nc(OCC2CC2)nc2c1nc(O)n2Cc1cccc(CN2CCCC2)c1 [Example AW]	< 0.005
COCCOc1nc(N)c2nc(O)n(Cc3cccc(CNCC4CCCCC4)c3)c2n1 [Example AZ]	< 0.005
CCCCOc1nc(N)c2nc(O)n(Cc3cccc(CN4CCC4)c3)c2n1 [Example BE]	< 0.005
Nc1nc(OCCC(F)(F)F)nc2c1nc(O)n2Cc1cccc(CN2CCCC2)c1 [Example BH]	< 0.005
Nc1nc(OC2CCCC2)nc2c1nc(O)n2Cc1cccc(CN2CCCC2)c1 [Example BM]	< 0.005
COCCOc1nc(N)c2nc(O)n(Cc3cccc(CN4CCN(C)CC4)c3)c2n1 [Example C, 6-Amino-2-(2-methoxy-ethoxy)-9-[3-(4-methyl-piperazin-1-ylmethyl)-benzyl]-9H-purin-8-ol]	< 0.005
COCCOc1nc(N)c2nc(O)n(Cc3cccc(CNCC4CC4)c3)c2n1 [Example D, 6-Amino-9-{3-[(cyclopropylmethyl-amino)-methyl]-benzyl}-2-(2-methoxy-ethoxy)-9H-purin-8-ol]	< 0.005
COCCOc1nc(N)c2nc(O)n(Cc3cccc(CN4CC(C)CC(C)C4)c3)c2n1 (stereo not shown) [Example F, 6-Amino-9-[3-(3,5-dimethyl-piperidin-1-ylmethyl)-benzyl]-2-(2-methoxy-ethoxy)-9H-purin-8-ol]	< 0.005
COCCOc1nc(N)c2nc(O)n(Cc3cccc(CN4CCCCC4)c3)c2n1 [Example J, 6-Amino-2-(2-methoxy-ethoxy)-9-(3-piperidin-1-ylmethyl-benzyl)-9H-purin-8-ol]	< 0.005
COCCOc1nc(N)c2nc(O)n(Cc3cccc(CN4CCC4)c3)c2n1 [Example N, 9-(3-(azetidin-1-ylmethyl)benzyl)-6-amino-2-(2-methoxyethoxy)-9H-purin-8-ol]	< 0.005
COCCOc1nc(N)c2nc(OC(=O)OC(C)C)n(Cc3cccc(CN4CCCC4)c3)c2n1 [Example R, 9-(3-(pyrrolidin-1-ylmethyl)benzyl)-6-amino-2-(2-methoxyethoxy)-9H-purin-8-yl isopropyl carbonate]	< 0.005
